Measured values from US8263754B2, “Amphiphiles for protein solubilization and stabilization” (Wisconsin Alumni Research Foundation, priority 2008, dated 2012).

Assay: Critical micelle concentration (CMC) by dye solubilization (Orange OT or DPH)
Format: physicochemical
Conditions: determined by DPH (diphenylhexatriene) or Orange OT
Text: Aqueous solubilization of Orange OT was used to determine critical micelle concentrations (CMC). […] Facile self-association of these amphiphiles under these conditions may be hindered by the hydrophilicity and/or steric bulk of the triglucoside and dimaltoside headgroups.
The Critical Micelle Concentrations (CMCs) of compounds of the invention can be determined by standard techniques known to those of skill in the art. For example, CMCs of the carbohydrate-based amphiphiles described herein can be determined by monitoring uptake of a dye (e.g., Orange OT or 1,6-diphenylhexatriene) with increasing detergent concentration, monitored by UV-visible or fluorescence spectroscopy.

| Structure (SMILES) | CMC | CMC (%) |
| --- | --- | --- |
| CCCCC(CCCC)(CC(=O)NC(CO[C@@H]1O[C@H](CO)[C@@H](O)[C@H](O)[C@H]1O)CO[C@@H]1O[C@H](CO)[C@@H](O)[C@H](O)[C@H]1O)c1ccc(C(C)C)cc1 [TPA 32] | 1.3 mM | 0.091% |
| CCCCC(CCCC)(CC(=O)NC(CO[C@@H]1O[C@H](CO)[C@@H](O)[C@H](O)[C@H]1O)CO[C@@H]1O[C@H](CO)[C@@H](O)[C@H](O)[C@H]1O)c1ccc(C(C)(C)C)cc1 [TPA 33] | 0.42 mM | 0.03% |
| CCCCC(CCCC)(CC(=O)NC(COC1OC(CO)C(O)C(O)C1O)COC1OC(CO)C(O)C(O)C1O)c1ccc(-c2ccccc2)cc1 (stereo not drawn) [TPA 34] | 0.14 mM | 0.01% |
| CCCCCC(CCCCC)(CC(=O)NC(CO[C@@H]1O[C@H](CO)[C@@H](O)[C@H](O)[C@H]1O)CO[C@@H]1O[C@H](CO)[C@@H](O)[C@H](O)[C@H]1O)c1ccccc1 [TPA 35] | 1.2 mM | 0.083% |
| CCCCCCC(CCCCCC)(CC(=O)NC(CO[C@@H]1O[C@H](CO)[C@@H](O)[C@H](O)[C@H]1O)CO[C@@H]1O[C@H](CO)[C@@H](O)[C@H](O)[C@H]1O)c1ccccc1 [TPA 36] | 0.56 mM | 0.04% |
| O=C(NCCO[C@H]1OC(CO)[C@H](O)C(O)[C@H]1O)C12CC3CC(CC(C3)C1)C2 (stereo partly drawn) [TPA 41] | 180 mM | 6.9% |
| CC12CC3CC(C)(C1)CC(CC(=O)NCCO[C@H]1OC(CO)[C@H](O[C@@H]4OC(CO)[C@H](O)C(O)[C@H]4O)C(O)[C@H]1O)(C3)C2 (stereo partly drawn) [TPA 44] | 19.1 mM | 1.1% |
| CCCC[C@]1(CC(=O)NC(CO[C@H]2OC(CO)[C@H](O)C(O)[C@H]2O)CO[C@H]2OC(CO)[C@H](O)C(O)[C@H]2O)C2C[C@@H]3C[C@H](C2)C[C@@H]1C3 (stereo partly drawn) [TPA 45] | 6.4 mM | 0.41% |
| CCCC[C@]1(CC(=O)NCCO[C@H]2OC(CO)[C@H](O[C@@H]3OC(CO)[C@H](O)C(O)[C@H]3O)C(O)[C@H]2O)C2C[C@@H]3C[C@H](C2)C[C@@H]1C3 (stereo partly drawn) [TPA 46] | 2.6 mM | 0.16% |
| CC(CC(=O)NC(CO[C@@H]1O[C@H](CO)[C@@H](O)[C@H](O)[C@H]1O)CO[C@@H]1O[C@H](CO)[C@@H](O)[C@H](O)[C@H]1O)(C1CCCCC1)C1CCCCC1 [TPA 47] | 4.7 mM | 0.3% |
| CCCCC(CC(=O)NC(CO[C@@H]1O[C@H](CO)[C@@H](O)[C@H](O)[C@H]1O)CO[C@@H]1O[C@H](CO)[C@@H](O)[C@H](O)[C@H]1O)(C1CCCCC1)C1CCCCC1 [TPA 49] | 0.64 mM | 0.04% |
| O=C(CC1(C2CCCCC2)CCCCC1)NC(CO[C@@H]1O[C@H](CO)[C@@H](O)[C@H](O)[C@H]1O)CO[C@@H]1O[C@H](CO)[C@@H](O)[C@H](O)[C@H]1O [TPA 50] | 19.2 mM | 1.19% |
| CCCCCC[C@]1(CC(=O)NC(CO[C@H]2OC(CO)[C@H](O)C(O)[C@H]2O)CO[C@H]2OC(CO)[C@H](O)C(O)[C@H]2O)C2C[C@@H]3C[C@H](C2)C[C@@H]1C3 (stereo partly drawn) [TPA 52] | 1.1 mM | 0.075% |
| O=C(CC1(C2CCCCC2)CCCCCC1)NC(CO[C@@H]1O[C@H](CO)[C@@H](O)[C@H](O)[C@H]1O)CO[C@@H]1O[C@H](CO)[C@@H](O)[C@H](O)[C@H]1O [TPA 53] | 13.8 mM | 0.88% |
| O=C(CC1(C2CCCCC2)CCCCCCC1)NC(CO[C@@H]1O[C@H](CO)[C@@H](O)[C@H](O)[C@H]1O)CO[C@@H]1O[C@H](CO)[C@@H](O)[C@H](O)[C@H]1O [TPA 54] | 4.5 mM | 0.29% |
| CCCCC(CCCC)(CC(=O)NC(COC1OC(CO)C(O)C(O)C1O)COC1OC(CO)C(O)C(O)C1O)C1CCCC1 (stereo not drawn) [TPA 57] | 2.25 mM | 0.15% |
| CCCCCC(CC(=O)NC(CO[C@@H]1O[C@H](CO)[C@@H](O)[C@H](O)[C@H]1O)CO[C@@H]1O[C@H](CO)[C@@H](O)[C@H](O)[C@H]1O)(C1CCCCC1)C1CCCCC1 [TPA 73] | 0.21 mM | 0.014% |
| CC(C)(C)CC(C)(C)c1ccc(OCC(=O)NCCC[N+](C)(C)[O-])cc1 [Triton-N-oxide] | 1.1 mM | 0.04% |
